Species on record: Rattus norvegicus
Test: Open TG-GATES - Regimen: Single
Format: toxicity, organism-based, Sprague-Dawley
Parameters: regimen Single, gender Male, age 6 weeks
Details: in vivo, po, route gavage; for gamma-GTP / ALP / ALT / AST / BUN / CRE / DBIL / GLC / IP / K / LDH / Na / PL / RALB / TBIL / TC / TG / TP: tissue Plasma; for APTT / Bas / Eos / Fbg / Hb / Ht / Lym / MCHC / MCV / Mono / Neu / PT / Plat / RBC / Ret / WBC: tissue Blood; for KIDNEY_L / KIDNEY_R / KIDNEY_TOTAL: tissue Kidney; for LIVER: tissue Liver
[1] = 300 mg/kg, 24 h, dose level Low

With `C#C[C@]1(O)CC[C@H]2[C@@H]3CCC4=Cc5oncc5C[C@]4(C)[C@H]3CC[C@@]21C` [DANAZOL] the gamma-GTP (0 mg/kg, 24 h, dose level Control) was 2.2 IU/L, the TERMINAL_BW (300 mg/kg, 3 h, dose level Low) was 219.6 g and the APTT (300 mg/kg, 3 h, dose level Low) was 23.3 s. The Bas (300 mg/kg, 3 h, dose level Low) was 0%, the Eos (300 mg/kg, 3 h, dose level Low) was 0.6% and the Fbg (300 mg/kg, 3 h, dose level Low) was 297.4 mg/dL. For the same compound, the Hb (300 mg/kg, 3 h, dose level Low) was 13.6 g/dL, the Ht (300 mg/kg, 3 h, dose level Low) was 40.9% and the Lym (300 mg/kg, 3 h, dose level Low) was 84.4%. For the same compound, the MCHC (300 mg/kg, 3 h, dose level Low) was 33.3%, the MCV (300 mg/kg, 3 h, dose level Low) was 62.6 fL and the Mono (300 mg/kg, 3 h, dose level Low) was 1.6%. It also gave a Neu (300 mg/kg, 3 h, dose level Low) of 12.6%, a PT (300 mg/kg, 3 h, dose level Low) of 15.8 s and a Plat (300 mg/kg, 3 h, dose level Low) of 102 x10_4/uL. The RBC (300 mg/kg, 3 h, dose level Low) was 654 x10_4/ul, the Ret (300 mg/kg, 3 h, dose level Low) was 7.2% and the WBC (300 mg/kg, 3 h, dose level Low) was 80 x10_2/uL. It also gave a KIDNEY_L (300 mg/kg, 3 h, dose level Low) of 0.9 g, a KIDNEY_R (300 mg/kg, 3 h, dose level Low) of 1 g and a KIDNEY_TOTAL (300 mg/kg, 3 h, dose level Low) of 1.9 g. It also gave an LIVER (300 mg/kg, 3 h, dose level Low) of 9.9 g, an ALP (300 mg/kg, 3 h, dose level Low) of 1338.8 IU/L and an ALT (300 mg/kg, 3 h, dose level Low) of 43.4 IU/L. For the same compound, the AST (300 mg/kg, 3 h, dose level Low) was 77.6 IU/L, the BUN (300 mg/kg, 3 h, dose level Low) was 15.4 mg/dL and the CRE (300 mg/kg, 3 h, dose level Low) was 0.2 mg/dL. For the same compound, the DBIL (300 mg/kg, 3 h, dose level Low) was 0 mg/dL, the GLC (300 mg/kg, 3 h, dose level Low) was 178.6 mg/dL and the IP (300 mg/kg, 3 h, dose level Low) was 8.2 mg/dL. It also gave a K (300 mg/kg, 3 h, dose level Low) of 4.3 meq/L, an LDH (300 mg/kg, 3 h, dose level Low) of 149 IU/L and a Na (300 mg/kg, 3 h, dose level Low) of 141.6 meq/L. The PL (300 mg/kg, 3 h, dose level Low) was 131.8 mg/dL, the RALB (300 mg/kg, 3 h, dose level Low) was 2.9 g/dL and the TBIL (300 mg/kg, 3 h, dose level Low) was 0.016 mg/dL. The TC (300 mg/kg, 3 h, dose level Low) was 68.4 mg/dL, the TG (300 mg/kg, 3 h, dose level Low) was 87 mg/dL and the TP (300 mg/kg, 3 h, dose level Low) was 5.5 g/dL. The gamma-GTP (300 mg/kg, 3 h, dose level Low) was 1.8 IU/L, the APTT (300 mg/kg, 6 h, dose level Low) was 23.9 s and the Bas (300 mg/kg, 6 h, dose level Low) was 0%. It also gave an Eos (300 mg/kg, 6 h, dose level Low) of 0.8%, a Fbg (300 mg/kg, 6 h, dose level Low) of 284.6 mg/dL and a Hb (300 mg/kg, 6 h, dose level Low) of 13 g/dL. For the same compound, the Ht (300 mg/kg, 6 h, dose level Low) was 40.1%, the Lym (300 mg/kg, 6 h, dose level Low) was 76.8% and the MCHC (300 mg/kg, 6 h, dose level Low) was 32.4%. It also gave an MCV (300 mg/kg, 6 h, dose level Low) of 63.6 fL, a Mono (300 mg/kg, 6 h, dose level Low) of 2.6% and a Neu (300 mg/kg, 6 h, dose level Low) of 18.8%. The PT (300 mg/kg, 6 h, dose level Low) was 16.7 s, the Plat (300 mg/kg, 6 h, dose level Low) was 120.1 x10_4/uL and the RBC (300 mg/kg, 6 h, dose level Low) was 631.8 x10_4/ul. The Ret (300 mg/kg, 6 h, dose level Low) was 7.6%, the WBC (300 mg/kg, 6 h, dose level Low) was 85.9 x10_2/uL and the KIDNEY_L (300 mg/kg, 6 h, dose level Low) was 0.9 g. It also gave a KIDNEY_R (300 mg/kg, 6 h, dose level Low) of 0.9 g, a KIDNEY_TOTAL (300 mg/kg, 6 h, dose level Low) of 1.9 g and an LIVER (300 mg/kg, 6 h, dose level Low) of 9 g. It also gave an ALP (300 mg/kg, 6 h, dose level Low) of 1332 IU/L, an ALT (300 mg/kg, 6 h, dose level Low) of 35.4 IU/L and an AST (300 mg/kg, 6 h, dose level Low) of 70.2 IU/L. For the same compound, the BUN (300 mg/kg, 6 h, dose level Low) was 10.2 mg/dL, the CRE (300 mg/kg, 6 h, dose level Low) was 0.2 mg/dL and the DBIL (300 mg/kg, 6 h, dose level Low) was 0.004 mg/dL. The GLC (300 mg/kg, 6 h, dose level Low) was 177.8 mg/dL, the IP (300 mg/kg, 6 h, dose level Low) was 9 mg/dL and the K (300 mg/kg, 6 h, dose level Low) was 4.3 meq/L. The LDH (300 mg/kg, 6 h, dose level Low) was 150.6 IU/L, the Na (300 mg/kg, 6 h, dose level Low) was 142.2 meq/L and the PL (300 mg/kg, 6 h, dose level Low) was 128.6 mg/dL. It also gave an RALB (300 mg/kg, 6 h, dose level Low) of 3 g/dL, a TBIL (300 mg/kg, 6 h, dose level Low) of 0.032 mg/dL and a TC (300 mg/kg, 6 h, dose level Low) of 64.2 mg/dL. The TG (300 mg/kg, 6 h, dose level Low) was 58 mg/dL, the TP (300 mg/kg, 6 h, dose level Low) was 5.3 g/dL and the gamma-GTP (300 mg/kg, 6 h, dose level Low) was 1.6 IU/L. The TERMINAL_BW (300 mg/kg, 9 h, dose level Low) was 214.6 g, the APTT (300 mg/kg, 9 h, dose level Low) was 22.8 s and the Bas (300 mg/kg, 9 h, dose level Low) was 0%. For the same compound, the Eos (300 mg/kg, 9 h, dose level Low) was 0.8%, the Fbg (300 mg/kg, 9 h, dose level Low) was 295.4 mg/dL and the Hb (300 mg/kg, 9 h, dose level Low) was 13 g/dL. For the same compound, the Ht (300 mg/kg, 9 h, dose level Low) was 39.6%, the Lym (300 mg/kg, 9 h, dose level Low) was 78.6% and the MCHC (300 mg/kg, 9 h, dose level Low) was 32.8%. It also gave an MCV (300 mg/kg, 9 h, dose level Low) of 61.1 fL, a Mono (300 mg/kg, 9 h, dose level Low) of 2.4% and a Neu (300 mg/kg, 9 h, dose level Low) of 17.8%. It also gave a PT (300 mg/kg, 9 h, dose level Low) of 16.7 s, a Plat (300 mg/kg, 9 h, dose level Low) of 117.4 x10_4/uL and an RBC (300 mg/kg, 9 h, dose level Low) of 650.2 x10_4/ul. The Ret (300 mg/kg, 9 h, dose level Low) was 7.4%, the WBC (300 mg/kg, 9 h, dose level Low) was 72.2 x10_2/uL and the KIDNEY_L (300 mg/kg, 9 h, dose level Low) was 1 g. It also gave a KIDNEY_R (300 mg/kg, 9 h, dose level Low) of 1 g, a KIDNEY_TOTAL (300 mg/kg, 9 h, dose level Low) of 2 g and an LIVER (300 mg/kg, 9 h, dose level Low) of 9.5 g. It also gave an ALP (300 mg/kg, 9 h, dose level Low) of 1341.8 IU/L, an ALT (300 mg/kg, 9 h, dose level Low) of 35.8 IU/L and an AST (300 mg/kg, 9 h, dose level Low) of 66.2 IU/L. The BUN (300 mg/kg, 9 h, dose level Low) was 10.8 mg/dL, the CRE (300 mg/kg, 9 h, dose level Low) was 0.1 mg/dL and the DBIL (300 mg/kg, 9 h, dose level Low) was 0.002 mg/dL. The GLC (300 mg/kg, 9 h, dose level Low) was 185.8 mg/dL, the IP (300 mg/kg, 9 h, dose level Low) was 9.8 mg/dL and the K (300 mg/kg, 9 h, dose level Low) was 4.3 meq/L. The LDH (300 mg/kg, 9 h, dose level Low) was 132 IU/L, the Na (300 mg/kg, 9 h, dose level Low) was 142.4 meq/L and the PL (300 mg/kg, 9 h, dose level Low) was 109.4 mg/dL. It also gave an RALB (300 mg/kg, 9 h, dose level Low) of 2.9 g/dL, a TBIL (300 mg/kg, 9 h, dose level Low) of 0.024 mg/dL and a TC (300 mg/kg, 9 h, dose level Low) of 54.2 mg/dL. The TG (300 mg/kg, 9 h, dose level Low) was 57.2 mg/dL, the TP (300 mg/kg, 9 h, dose level Low) was 5.3 g/dL and the gamma-GTP (300 mg/kg, 9 h, dose level Low) was 1.8 IU/L. The TERMINAL_BW [1] was 226.8 g, the APTT [1] was 23.3 s and the Bas [1] was 0%. The Eos [1] was 0.6%, the Fbg [1] was 307.6 mg/dL and the Hb [1] was 13.2 g/dL. The Ht [1] was 40.1%, the Lym [1] was 81.8% and the MCHC [1] was 32.9%. For the same compound, the MCV [1] was 62.6 fL, the Mono [1] was 2.2% and the Neu [1] was 14.6%. For the same compound, the PT [1] was 17 s, the Plat [1] was 116.4 x10_4/uL and the RBC [1] was 639.6 x10_4/ul. The Ret [1] was 7.3%, the WBC [1] was 87.1 x10_2/uL and the KIDNEY_L [1] was 1 g. It also gave a KIDNEY_R [1] of 1.1 g, a KIDNEY_TOTAL [1] of 2.1 g and an LIVER [1] of 11.5 g. It also gave an ALP [1] of 1893.6 IU/L, an ALT [1] of 37.4 IU/L and an AST [1] of 66.4 IU/L. For the same compound, the BUN [1] was 15.8 mg/dL, the CRE [1] was 0.2 mg/dL and the DBIL [1] was 0 mg/dL. It also gave a GLC [1] of 187.6 mg/dL, an IP [1] of 7.2 mg/dL and a K [1] of 4.3 meq/L. The LDH [1] was 167 IU/L, the Na [1] was 141.2 meq/L and the PL [1] was 130 mg/dL. The RALB [1] was 3.1 g/dL, the TBIL [1] was 0.002 mg/dL and the TC [1] was 48.2 mg/dL. For the same compound, the TG [1] was 223.8 mg/dL, the TP [1] was 5.6 g/dL and the gamma-GTP [1] was 1.4 IU/L.

From ChEMBL document CHEMBL3885861, “Open TG-GATES”
